# Experimental data taken from US20230365546A1, “5-SUBSTITUTED INDOLE 3-AMIDE DERIVATIVES, PREPARATION METHOD AND USE THEREOF” (ORIGIANT PHARMACEUTICAL CO., LTD, priority 2020, published 2023).
# Experiments:
# Experiment in all cases: Kinase Profiler 10 μM panel
# Pim-3(h) = Pim-3(h) (Homo sapiens (Human), UniProt Q86V86)
# Protocol: (§1) In vitro kinase assays were conducted using Kinase Profiler services provided by Eurofins. The experimental method was as follows: the small molecule compound to be tested (0.001-10 μM), the protein kinase to be tested were incubated with a buffer containing substrate, 10 mM magnesium acetate, and [γ-^33P-ATP], the reaction was started by adding Mg\TPmix, after incubation for a period of time at room temperature, a 3% phosphate solution was added to the buffer to stop the reaction. Subsequently, 10 μL of the reaction mixture was quantitatively pipetted onto P30 filter paper, which was washed three times with 75 mM phosphate solution and then once with methanol. The P30 filter paper was air-dried and scintillation fluid was added for scintillation counting.
# IKKa(h) = IKKa(h) (Homo sapiens (Human), UniProt O15111)
# Protocol: as §1
# MAPKAP-K3(h) = MAPKAP-K3(h) (Homo sapiens (Human), UniProt Q16644)
# Protocol: as §1
# [1] = molecular target: PI3 Kinase (p110a(H1047R)/p85a)(h) (Homo sapiens (Human), UniProt P42336, H1047R)
# Protocol: as §1
# Rsk2(h) = Rsk2(h) (Homo sapiens (Human), UniProt P51812)
# Protocol: as §1
# BRK(h) = BRK(h) (Homo sapiens (Human), UniProt Q13882)
# Protocol: as §1
# LTK(h) = LTK(h) (Homo sapiens (Human), UniProt P29376)
# Protocol: as §1
# Abl (M351T)(h) = Abl (M351T)(h) (Homo sapiens (Human), UniProt P00519, M351T)
# Protocol: as §1
# CDK6/cyclinD3(h) = CDK6/cyclinD3(h) (Homo sapiens (Human), UniProt Q00534)
# Protocol: as §1
# EphA1(h) = EphA1(h) (Homo sapiens (Human), UniProt P21709)
# Protocol: as §1
# DYRK2(h) = DYRK2(h) (Homo sapiens (Human), UniProt Q92630)
# Protocol: as §1
# PKCβI(h) = PKCβI(h) (Homo sapiens (Human), UniProt P05771)
# Protocol: as §1
# [2] = molecular target: PI3 Kinase (p110a/p85a)(m) (Mus musculus (Mouse), UniProt P42337)
# PI3 Kinase (p110a/p85a)(m), sequence (P42337 whole entry): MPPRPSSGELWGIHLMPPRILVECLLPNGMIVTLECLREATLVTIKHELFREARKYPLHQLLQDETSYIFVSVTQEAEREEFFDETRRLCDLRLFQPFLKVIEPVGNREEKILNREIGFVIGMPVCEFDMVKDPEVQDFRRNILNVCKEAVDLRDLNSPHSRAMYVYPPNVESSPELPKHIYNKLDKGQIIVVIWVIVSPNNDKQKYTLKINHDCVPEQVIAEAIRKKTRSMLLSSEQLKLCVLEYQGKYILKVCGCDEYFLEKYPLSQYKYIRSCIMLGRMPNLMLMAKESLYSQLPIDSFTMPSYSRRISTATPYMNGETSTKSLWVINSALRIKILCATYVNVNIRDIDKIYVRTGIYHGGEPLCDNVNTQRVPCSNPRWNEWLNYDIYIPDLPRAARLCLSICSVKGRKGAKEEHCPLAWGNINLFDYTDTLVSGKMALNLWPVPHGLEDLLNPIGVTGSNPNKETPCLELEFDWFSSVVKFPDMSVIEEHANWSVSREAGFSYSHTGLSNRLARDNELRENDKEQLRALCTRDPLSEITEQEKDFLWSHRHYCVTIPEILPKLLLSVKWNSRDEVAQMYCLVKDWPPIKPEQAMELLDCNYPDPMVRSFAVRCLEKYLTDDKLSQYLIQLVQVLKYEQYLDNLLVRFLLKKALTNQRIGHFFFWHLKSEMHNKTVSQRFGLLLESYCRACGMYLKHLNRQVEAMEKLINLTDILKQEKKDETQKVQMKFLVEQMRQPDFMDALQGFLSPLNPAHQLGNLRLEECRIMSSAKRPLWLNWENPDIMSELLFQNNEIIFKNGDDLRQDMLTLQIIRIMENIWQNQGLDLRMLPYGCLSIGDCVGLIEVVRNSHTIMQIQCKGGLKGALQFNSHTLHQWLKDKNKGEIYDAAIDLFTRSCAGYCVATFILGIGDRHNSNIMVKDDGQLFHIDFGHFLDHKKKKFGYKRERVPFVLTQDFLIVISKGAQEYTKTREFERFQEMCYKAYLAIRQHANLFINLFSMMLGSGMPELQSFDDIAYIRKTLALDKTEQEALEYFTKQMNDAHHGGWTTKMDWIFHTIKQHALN
# PI3 Kinase (p110a/p85a)(m), sequence (P26450 whole entry partner): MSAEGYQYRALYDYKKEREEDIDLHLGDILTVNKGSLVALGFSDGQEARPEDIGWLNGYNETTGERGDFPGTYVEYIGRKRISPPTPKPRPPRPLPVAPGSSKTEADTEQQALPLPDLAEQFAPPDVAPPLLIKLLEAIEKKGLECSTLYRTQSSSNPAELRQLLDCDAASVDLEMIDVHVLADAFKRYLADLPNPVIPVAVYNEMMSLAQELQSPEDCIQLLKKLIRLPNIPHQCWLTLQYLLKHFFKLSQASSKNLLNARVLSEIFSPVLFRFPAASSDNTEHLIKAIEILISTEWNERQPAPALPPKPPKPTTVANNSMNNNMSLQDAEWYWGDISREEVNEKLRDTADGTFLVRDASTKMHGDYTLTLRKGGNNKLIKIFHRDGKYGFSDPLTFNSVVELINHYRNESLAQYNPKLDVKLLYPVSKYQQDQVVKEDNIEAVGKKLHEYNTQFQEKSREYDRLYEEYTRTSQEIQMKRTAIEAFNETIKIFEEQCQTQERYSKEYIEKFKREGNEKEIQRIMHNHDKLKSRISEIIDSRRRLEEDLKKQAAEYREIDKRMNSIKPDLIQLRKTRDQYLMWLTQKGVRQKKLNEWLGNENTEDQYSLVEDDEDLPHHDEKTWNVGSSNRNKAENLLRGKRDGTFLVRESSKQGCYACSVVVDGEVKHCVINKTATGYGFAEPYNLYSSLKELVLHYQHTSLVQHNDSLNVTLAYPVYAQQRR
# Protocol: as §1
# Flt1(h) = Flt1(h) (Homo sapiens (Human), UniProt P17948)
# Protocol: as §1
# MARK3(h) = MARK3(h) (Homo sapiens (Human), UniProt P27448)
# Protocol: as §1
# CDK3/cyclinE(h) = CDK3/cyclinE(h) (Homo sapiens (Human), UniProt Q00526)
# Protocol: as §1
# Pyk2(h) = Pyk2(h) (Homo sapiens (Human), UniProt Q14289)
# Protocol: as §1
# Yes(h) = Yes(h) (Homo sapiens (Human), UniProt P07947)
# Protocol: as §1
# PIP5K1a(h) = PIP5K1a(h) (Homo sapiens (Human), UniProt Q99755)
# Protocol: as §1
# TrkC(h) = TrkC(h) (Homo sapiens (Human), UniProt Q16288)
# TrkC(h), sequence (Q16288 32-839): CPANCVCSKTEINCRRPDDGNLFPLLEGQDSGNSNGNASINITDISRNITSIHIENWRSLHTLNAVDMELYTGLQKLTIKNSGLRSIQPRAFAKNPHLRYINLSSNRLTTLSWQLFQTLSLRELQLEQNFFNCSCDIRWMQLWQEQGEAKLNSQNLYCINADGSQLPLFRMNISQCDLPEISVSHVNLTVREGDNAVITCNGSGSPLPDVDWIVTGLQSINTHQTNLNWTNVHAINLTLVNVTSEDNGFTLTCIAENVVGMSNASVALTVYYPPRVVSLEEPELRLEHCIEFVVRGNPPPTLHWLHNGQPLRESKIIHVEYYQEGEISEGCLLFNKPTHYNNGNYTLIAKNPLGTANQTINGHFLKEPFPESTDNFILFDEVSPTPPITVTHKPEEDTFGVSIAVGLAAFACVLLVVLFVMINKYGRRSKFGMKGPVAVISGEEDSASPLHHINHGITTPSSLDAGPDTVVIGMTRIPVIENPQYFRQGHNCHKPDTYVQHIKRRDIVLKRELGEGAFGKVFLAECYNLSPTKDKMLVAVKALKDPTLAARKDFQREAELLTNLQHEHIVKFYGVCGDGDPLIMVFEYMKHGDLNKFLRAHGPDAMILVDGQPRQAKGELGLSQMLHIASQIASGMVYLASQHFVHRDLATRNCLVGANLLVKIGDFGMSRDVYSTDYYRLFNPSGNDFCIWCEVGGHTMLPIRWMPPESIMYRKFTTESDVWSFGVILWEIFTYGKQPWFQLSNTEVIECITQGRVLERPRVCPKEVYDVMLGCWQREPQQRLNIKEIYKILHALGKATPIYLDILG
# Protocol: as §1
# ZIPK(h) = ZIPK(h) (Homo sapiens (Human), UniProt O43293)
# ZIPK(h), sequence (O43293 whole entry): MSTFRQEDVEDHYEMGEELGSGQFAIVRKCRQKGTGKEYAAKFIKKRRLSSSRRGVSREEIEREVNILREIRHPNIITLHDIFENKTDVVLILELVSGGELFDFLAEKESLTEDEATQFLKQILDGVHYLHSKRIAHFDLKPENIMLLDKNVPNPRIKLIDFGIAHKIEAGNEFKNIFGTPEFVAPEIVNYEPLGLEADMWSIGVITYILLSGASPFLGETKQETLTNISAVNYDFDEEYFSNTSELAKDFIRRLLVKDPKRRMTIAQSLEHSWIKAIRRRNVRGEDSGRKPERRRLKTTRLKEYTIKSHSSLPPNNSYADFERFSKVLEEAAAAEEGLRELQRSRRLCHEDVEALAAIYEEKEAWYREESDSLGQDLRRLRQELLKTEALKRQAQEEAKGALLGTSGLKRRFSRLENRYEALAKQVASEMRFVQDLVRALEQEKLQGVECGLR
# Protocol: as §1
# ALK2(h) = ALK2(h) (Homo sapiens (Human), UniProt Q04771)
# ALK2(h), sequence (Q04771 21-509): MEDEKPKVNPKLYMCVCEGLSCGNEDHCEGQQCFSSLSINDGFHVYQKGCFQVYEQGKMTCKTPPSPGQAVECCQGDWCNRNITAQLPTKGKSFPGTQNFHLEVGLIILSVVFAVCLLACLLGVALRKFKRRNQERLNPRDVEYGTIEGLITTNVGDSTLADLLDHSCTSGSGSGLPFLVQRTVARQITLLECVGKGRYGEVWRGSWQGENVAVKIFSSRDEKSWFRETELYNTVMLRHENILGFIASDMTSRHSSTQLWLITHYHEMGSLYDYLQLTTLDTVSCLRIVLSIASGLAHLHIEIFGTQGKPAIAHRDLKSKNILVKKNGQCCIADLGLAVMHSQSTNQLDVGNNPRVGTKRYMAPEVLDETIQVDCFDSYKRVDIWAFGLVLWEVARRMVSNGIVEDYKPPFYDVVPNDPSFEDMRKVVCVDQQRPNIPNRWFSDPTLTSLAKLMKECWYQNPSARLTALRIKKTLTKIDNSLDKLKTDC
# Protocol: as §1
# [3] = molecular target: PI3 Kinase (p110a/p65a)(h) (Homo sapiens (Human), UniProt P42336)
# Protocol: as §1
# [4] = molecular target: PI3 Kinase (p110d/p85a)(m) (Mus musculus (Mouse), UniProt O35904)
# Protocol: as §1
# CSK(h) = CSK(h) (Homo sapiens (Human), UniProt P41240)
# Protocol: as §1
# GRK5(h) = GRK5(h) (Homo sapiens (Human), UniProt P34947)
# GRK5(h), sequence (P34947 whole entry): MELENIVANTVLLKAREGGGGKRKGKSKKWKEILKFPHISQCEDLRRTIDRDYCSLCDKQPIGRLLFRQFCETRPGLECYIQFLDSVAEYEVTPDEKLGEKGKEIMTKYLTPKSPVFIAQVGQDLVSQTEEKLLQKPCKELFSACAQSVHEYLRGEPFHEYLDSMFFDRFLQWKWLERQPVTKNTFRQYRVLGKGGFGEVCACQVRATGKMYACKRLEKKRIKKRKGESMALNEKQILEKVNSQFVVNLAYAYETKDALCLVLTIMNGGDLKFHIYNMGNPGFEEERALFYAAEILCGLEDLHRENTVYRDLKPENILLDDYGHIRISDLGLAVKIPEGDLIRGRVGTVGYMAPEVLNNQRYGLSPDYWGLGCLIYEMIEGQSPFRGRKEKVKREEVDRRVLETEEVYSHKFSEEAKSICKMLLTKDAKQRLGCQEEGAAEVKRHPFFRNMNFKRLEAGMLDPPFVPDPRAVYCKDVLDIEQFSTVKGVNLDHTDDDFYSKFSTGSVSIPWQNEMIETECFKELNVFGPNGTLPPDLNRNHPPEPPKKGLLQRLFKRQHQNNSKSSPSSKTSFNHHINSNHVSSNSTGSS
# Protocol: as §1
# Tie2(Y897S)(h) = Tie2(Y897S)(h) (Homo sapiens (Human), UniProt Q02763, Y897S)
# Protocol: as §1
# ACTR2(h) = ACTR2(h) (Homo sapiens (Human), UniProt P27037)
# Protocol: as §1
# Lyn(m) = Lyn(m) (Mus musculus (Mouse), UniProt P25911)
# Protocol: as §1
# FAK(h) = FAK(h) (Homo sapiens (Human), UniProt Q05397)
# Protocol: as §1
# ALK6(h) = ALK6(h) (Homo sapiens (Human), UniProt O00238)
# ALK6(h), sequence (O00238 14-502): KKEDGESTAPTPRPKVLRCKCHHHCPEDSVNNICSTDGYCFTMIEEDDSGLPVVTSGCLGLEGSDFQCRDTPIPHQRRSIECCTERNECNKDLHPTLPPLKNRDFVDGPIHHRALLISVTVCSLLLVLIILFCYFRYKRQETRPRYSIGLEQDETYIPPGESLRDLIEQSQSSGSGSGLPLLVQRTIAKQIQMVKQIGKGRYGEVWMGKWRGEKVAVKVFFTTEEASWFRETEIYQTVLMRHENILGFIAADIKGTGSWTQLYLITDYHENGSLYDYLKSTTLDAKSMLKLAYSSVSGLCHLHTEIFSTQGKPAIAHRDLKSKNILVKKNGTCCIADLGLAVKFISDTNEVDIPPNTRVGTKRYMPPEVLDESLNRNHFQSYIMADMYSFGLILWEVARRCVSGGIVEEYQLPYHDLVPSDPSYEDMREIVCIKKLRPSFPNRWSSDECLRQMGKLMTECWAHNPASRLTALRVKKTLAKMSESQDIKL
# Protocol: as §1
# GRK1(h) = GRK1(h) (Homo sapiens (Human), UniProt Q15835)
# Protocol: as §1
# IKKϵ(h) = IKKϵ(h) (Homo sapiens (Human), UniProt Q14164)
# Protocol: as §1
# MAPKAP-K3(h), sequence (Q16644 whole entry): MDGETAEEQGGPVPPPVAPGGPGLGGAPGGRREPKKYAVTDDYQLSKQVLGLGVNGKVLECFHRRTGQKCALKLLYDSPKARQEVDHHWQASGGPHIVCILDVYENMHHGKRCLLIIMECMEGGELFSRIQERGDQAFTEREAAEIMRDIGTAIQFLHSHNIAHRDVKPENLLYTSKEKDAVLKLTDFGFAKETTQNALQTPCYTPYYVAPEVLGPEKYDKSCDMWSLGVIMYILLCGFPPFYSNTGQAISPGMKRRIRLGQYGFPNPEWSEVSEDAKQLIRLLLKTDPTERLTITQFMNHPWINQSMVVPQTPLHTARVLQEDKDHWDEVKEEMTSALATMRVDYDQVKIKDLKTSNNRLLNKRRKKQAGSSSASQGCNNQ
smiles,measurement,setting,value
"C[C@H](NC(=O)c1c[nH]c2ccc(-c3ccc4nc(NC(=O)C5CC5)sc4c3)cc12)c1cccc(F)c1 [Compound 34, (S)-5-(2-(cyclopropanecarboxamido)benzo[d]thiazol-6-yl)-N-(1-(3-fluorophenyl)ethyl)-1H-indole-3-carboxamide]",Inhibition ratio,Pim-3(h),3%
same,Inhibition ratio,IKKa(h); IKKa(h),5%
same,Inhibition ratio,MAPKAP-K3(h),−1%
same,Inhibition ratio,[1],34%
same,Inhibition ratio,Rsk2(h),1%
same,Inhibition ratio,BRK(h),4%
same,Inhibition ratio,LTK(h),23%
same,Inhibition ratio,Abl (M351T)(h),97%
same,Inhibition ratio,CDK6/cyclinD3(h),6%
same,Inhibition ratio,EphA1(h),3%
same,Inhibition ratio,DYRK2(h),5%
same,Inhibition ratio,PKCβI(h),27%
same,Inhibition ratio,[2],43%
same,Inhibition ratio,Flt1(h),100%
same,Inhibition ratio,MARK3(h),0%
same,Inhibition ratio,CDK3/cyclinE(h),−13%
same,Inhibition ratio,Pyk2(h),45%
same,Inhibition ratio,Yes(h),85%
same,Inhibition ratio,PIP5K1a(h),21%
same,Inhibition ratio,TrkC(h),104%
same,Inhibition ratio,ZIPK(h),−4%
same,Inhibition ratio,ALK2(h),64%
same,Inhibition ratio,[3],55%
same,Inhibition ratio,[4],31%
same,Inhibition ratio,CSK(h),13%
same,Inhibition ratio,GRK5(h),0%
same,Inhibition ratio,Tie2(Y897S)(h),88%
same,Inhibition ratio,ACTR2(h),6%
same,Inhibition ratio,Lyn(m),72%
same,Inhibition ratio,FAK(h),33%
same,Inhibition ratio,ALK6(h),−4%
same,Inhibition ratio,GRK1(h),−24%
same,Inhibition ratio,IKKϵ(h),19%
"C[C@H](NC(=O)c1cn(C)c2ccc(-c3ccn4nc(NC(=O)C5CC5)nc4c3)cc12)c1cccc(F)c1 [Compound 94, (S)-5-(2-(cyclopropanecarboxamido)-[1,2,4]triazolo[1,5-a]pyridin-7-yl)-N-(1-(3-fluorophenyl)ethyl)-1-methyl-1H-indole-3-carboxamide]",Inhibition ratio/%,Pim-3(h),32%
same,Inhibition ratio/%,IKKa(h); IKKα(h),29%
same,Inhibition ratio/%,MAPKAP-K3(h),−12%
same,Inhibition ratio/%,[1],24%
same,Inhibition ratio/%,Rsk2(h),4%
same,Inhibition ratio/%,BRK(h),47%
same,Inhibition ratio/%,LTK(h),5%
same,Inhibition ratio/%,Abl (M351T)(h),29%
same,Inhibition ratio/%,CDK6/cyclinD3(h),80%
same,Inhibition ratio/%,EphA1(h),−12%
same,Inhibition ratio/%,DYRK2(h),2%
same,Inhibition ratio/%,PKCβI(h),6%
same,Inhibition ratio/%,[2],−16%
same,Inhibition ratio/%,Flt1(h),42%
same,Inhibition ratio/%,MARK3(h),−3%
same,Inhibition ratio/%,CDK3/cyclinE(h),65%
same,Inhibition ratio/%,Pyk2(h),−5%
same,Inhibition ratio/%,Yes(h),29%
same,Inhibition ratio/%,PIP5K1a(h),16%
same,Inhibition ratio/%,TrkC(h),28%
same,Inhibition ratio/%,ZIPK(h),6%
same,Inhibition ratio/%,ALK2(h),−17%
same,Inhibition ratio/%,[3],4%
same,Inhibition ratio/%,[4],44%
same,Inhibition ratio/%,CSK(h),60%
same,Inhibition ratio/%,GRK5(h),21%
same,Inhibition ratio/%,Tie2(Y897S)(h),18%
same,Inhibition ratio/%,ACTR2(h),−3%
same,Inhibition ratio/%,Lyn(m),19%
same,Inhibition ratio/%,FAK(h),−3%
same,Inhibition ratio/%,ALK6(h),−5%
same,Inhibition ratio/%,GRK1(h),52%
same,Inhibition ratio/%,IKKϵ(h),−15%
